Experimental data: article PMC10357929 (Journal of the American Chemical Society, 2023)
Entries after “also recorded” stand apart in the source; their conditions may differ.

Key:
p53Y220C [1] = target: T1, p53Y220C (Homo sapiens, UniProt P04637, Y220C); settings: cited from earlier work
NCI-H1299 p53-null cells [2] = assay: Cell viability assay; format: cell-based; settings: 72 h
NCI-H1299 p53-null cells [3] = assay: Western blot of p53K382ac level in NCI-H1299 p53-null cells; format: cell-based; settings: 0, 1, 3, 10 μM, 24 h
[4] = test system: p53 WT U-2OS cancer cells; assay: Cell viability assay; format: cell-based; settings: 72 h; for inhibition of cell growth at the highest concentration tested: 10 μM
PNT2 cells = assay: Cytotoxicity in normal prostate cell line PNT2; format: cell-based; settings: read-out: GI50 (cytotoxicity)
p53-target genes [5] = assay: RT-qPCR of p53-target genes in NCI-H1299 p53Y220C stable cells; format: cell-based; settings: 10 μM, 24 h; for increase in p21 mRNA expression: relative to DMSO
BxPC3 (p53Y220C/−) cells = settings: for GI50: 72 h
[6] = test system: NUGC-3 (p53Y220C/+) cells; settings: 72 h
p53Y220C [7] = target: T1, p53Y220C; assay: Western blot / FLAG-IP of p53K382ac level in NCI-H1299; format: cell-based
p53Y220C and p300 = p53Y220C and p300 (Homo sapiens, UniProt P04637+Q09472, Y220C); assay: p53-FLAG pull-down of p53Y220C-p300 ternary complex; format: cell-based; settings: 24 h
BxPC3 cells = assay: Clonogenic assay, BxPC3; format: cell-based; settings: 1, 3, 10 μM, 14 days; compared to PK9328 and compound 33
NUGC-3 cells = assay: Clonogenic assay, NUGC-3; format: cell-based; settings: 1, 3, 10 μM, 14 days; compared to PK9328 and compound 33
p53Y220C [8] = target: T1, p53Y220C; assay: Western blot of p53K382ac level in BxPC3 cells; format: cell-based; settings: 10 μM, 24 h
p53Y220C [9] = target: T1, p53Y220C; assay: Western blot of p53K382ac level in NUGC-3 cells; format: cell-based; settings: 10 μM, 24 h
p53-target genes [10] = assay: RNA-seq in NCI-H1299 p53-null and p53Y220C cells; format: cell-based, human; settings: 10 μM, 24 h
[11] = test system: other bromodomain-containing proteins; assay: BromoMelt profiling against other bromodomain-containing proteins; settings: 10 μM, duplicates
[12] = p300-siRNA 72 h, then compound 72 h

Question: With `CCn1c2ccc(CNC)cc2c2ccc(-c3cscn3)cc21` [PK9323] as the molecule, how does the “stabilizes p53Y220C with a melting temperature (Tm)” value (p53Y220C [1]) read?
Answer: The value was 3.1 °C.

Question: With `CCn1c2ccc(CNC)cc2c2ccc(-c3cc(C)cs3)cc21` [PK9328, reference compound] as the molecule, how does the cell growth inhibition (NCI-H1299 p53-null cells [2]) read?
Answer: The cell growth inhibition was “did not induce any significant cell growth inhibition”.

Question: And the K382 acetylation (NCI-H1299 p53-null cells [3])?
Answer: The K382 acetylation was “did not significantly induce K382 acetylation”.

Question: What about the “inhibition of cell growth at the highest concentration tested” value [4] of the same molecule?
Answer: Its value is 30–40%.

Question: And the GI50 [4]?
Answer: Its GI50 is greater than 10 µM.

Question: What about the GI50 (PNT2 cells) of the same molecule?
Answer: Its GI50 is greater than 10 µM.

Question: What about the “effect on TIGAR, BAX, and PUMA (BBC3) genes” value (p53-target genes [5]) of the same molecule?
Answer: Its value is “little or modest effect”.

Question: What about the “expression of p21 (CDKN1A) and Mdm2 genes” value (p53-target genes [5]) of the same molecule?
Answer: Its value is “upregulated”.

Question: What about the “increase in p21 mRNA expression” value (p53-target genes [5]) of the same molecule?
Answer: Its value is 12 fold.

Question: And the “reduction in the cell growth in p300-siRNA-treated cells” value (NCI-H1299 p53Y220C cells; [12])?
Answer: The value was “about 50%”.

Question: And the GI50 (BxPC3 (p53Y220C/−) cells)?
Answer: Its GI50 is 13.9 ± 2.4 µM.

Question: And the GI50 [6]?
Answer: Its GI50 is 12.6 ± 1.9 µM.

Question: Which results are given for `CCn1c2ccc(CNCCOCCOCCOCCn3cc(COc4ccc(CCc5nc6cc(-c7c(C)noc7C)ccc6n5CCN5CCOCC5)cc4F)nn3)cc2c2ccc(-c3cc(C)cs3)cc21` [MS78]?
Answer: K382 acetylation (p53Y220C [7]; 0, 1, 3, 10 μM, 24 h, NCI-H1299 p53Y220C): significantly induced K382 acetylation; increase in p53K382ac level (p53Y220C [7]; 10 μM, 6 h): about 2 fold; increase in p53K382ac level (p53Y220C [7]; 10 μM, 24 h): about 4 fold; p53K382ac induction compared to compound 7 (p53Y220C [7]; 10 μM, 24 h): about 2 fold; p53Y220C K382 acetylation in p300 siRNA-treated cells (p53Y220C [7]; p300 knockdown, NCI-H1299 (p53Y220C)): significantly diminished; also recorded: abolished; EC50 (p53Y220C [7]; read-out: ACE50 (the concentration at which 50% of p53Y220C is acetylated), 24 h, acetylation level at 10 μM MS78 as the maximum response): 1.87 ± 0.3 µM; p53-p300 interaction (FLAG pull-down) (p53Y220C and p300; NCI-H1299 p53-null cells): no interaction was observed; p53Y220C-p300 interaction (FLAG pull-down) (p53Y220C and p300; NCI-H1299 p53Y220C cells): induced an interaction between p53Y220C and p300; cell growth inhibition (NCI-H1299 p53-null cells [2]): did not induce any significant cell growth inhibition; K382 acetylation (NCI-H1299 p53-null cells [3]): did not induce K382 acetylation; clonogenicity (BxPC3 cells): marked reduction in clonogenicity; clonogenicity (NUGC-3 cells): marked reduction in clonogenicity; increase in the p53K382ac level (p53Y220C [8]): about 4 fold; increase in the p53K382ac level (p53Y220C [9]): about 4 fold; inhibition of cell growth at the highest concentration tested [4]: 30–40%; GI50 [4]: > 10 µM; GI50 (PNT2 cells): > 10 µM; effect on TIGAR, BAX, and PUMA (BBC3) genes (p53-target genes [5]): little or modest effect; expression of p21 (CDKN1A) and Mdm2 genes (p53-target genes [5]): less upregulation; increase in p21 mRNA expression (p53-target genes [5]): 8 fold; expression of BAX, PUMA (BBC3), and NOXA (PMAIP1) genes (p53-target genes [10]): no significant upregulation; expression of DDR genes such as ATM, ATR, and CHEK1/2 (p53-target genes [10]): downregulation; expression of heat shock protein genes such as HSPA5, HSP40 (DNAJB1), HSP1A1/B (p53-target genes [10]): upregulation; cell growth inhibition (NCI-H1299 p53Y220C cells; 72 h): concentration-dependently inhibited the cell growth; antiproliferative effect after knockdown of p300 (NCI-H1299 p53Y220C cells; [12]): abolished the antiproliferative effect; GI50 (BxPC3 (p53Y220C/−) cells): 3.3 ± 1 µM; higher potency compared to the parent compound PK9328 (BxPC3 (p53Y220C/−) cells; GI50 in BxPC3 and NUGC-3): about 4 fold; GI50 [6]: 2.7 ± 0.5 µM; selectivity over a panel of other BRD-containing proteins [11]: selective for the CBP/p300 BRD
